The text below walks through data of patent US8394828B2 (Janssen Pharmaceutica, NV, priority 2003, dated 2013).

For experiment [1], the system named is Dextran Sulfate Sodium Induced Colitis. Put plainly: Mouse Colitis Model (Dextran Sulfate Sodium Induced Colitis). Type of experiment: in vivo, mice. The settings on record: 5% DSS in drinking water, twice daily, orally, 0.05-30 mg/kg. The source says: These are similar to what occurs in human colitis.
Balb/c female mice are provided with a solution of tap water containing 5% DSS (ICN chemicals) ad libitum over a 7-day period. […] This material may be administered orally or intraperitoneally, once or twice daily. At the end of this period, the animals are euthanized and their colons are collected for further analysis. Among the parameters analyzed are the length of the colon starting from 1 cm above the anus to the top of the cecum, the weight of the colon, the consistency of any stools found within the colon, and the gross macroscopic appearance of the colon. The distal colon between the 1st and the 4th centimeter are dissected into two halves. One half is placed in 10% neutral buffered formalin for later histological analysis if desired. The other half is cleaned in a bath of physiological buffer, patted dry, weighed and then placed in a solution of 0.5% hexadecyltrimethylammonium bromide (HTAB; Sigma) dissolved in 50 mM phosphate buffer, adjusted to pH 5.4. The tissue sample thus treated is then frozen at −80° C.
For the following parameters, colon length, colon weight, stool consistency and appearance and macroscopic damage a scoring system is used to describe the changes. The 4 scores for each animal are added to provide a Total Score. Thus,
Stool Score: • 0=normal (well-formed fecal pellets); • 1=loosely-shaped moist pellets; • 2=amorphous, moist, sticky pellets; • 3=bloody diarrhea. Presence of blood in stool: add 1 to scores <3
Colon Damage Score: • 0=no inflammation • 1=reddening mild inflammation; • 2=moderate inflammation or more widely distributed; • 3=severe inflammation and/or extensively distributed
Colon Weight Score: • 0=<5% weight loss; • 1=5-14% weight loss; • 2=15-24% weight loss; • 3=25-35% weight loss; 4=>35% weight loss.
Colon Length Score: • 0=<5% shortening; • 1=5-14% shortening; • 2=15-24% shortening; • 3=25-35% shortening; • 4=>35% shortening.
Colon weight changes and colon length changes are also directly measured and the net changes compared to DSS and untreated controls are used to calculate a % inhibition of colon weight loss or colon shrinkage induced by DSS treatment.
The tissue sample previously frozen at −80° C. in 0.5% solution of HTAB is thawed, homogenized twice for 15 seconds using a Brinkman Polytron homogenizer fitted with a TS10 generator. The crude homogenate is next sonicated at 60 watts for two 5-second bursts and then centrifuged for 20 minutes at 15000×g. The supernatant of this homogenate is collected, aliquoted and frozen at −70° C. for future analysis for myeloperoxidase analysis (MPO). MPO is an intracellular enzyme found in neutrophils and can be considered a surrogate marker for neutrophil infiltration into tissues, including those afflicted with colitis (Diaz-Granados, et al., 2000).
Statistical analyses were performed by ANOVA using Multiple Comparisons Test and Tukey's test.

Experiment [2] relates to carrageenan paw-induced thermal hyperalgesia. Briefly: Carrageenan Paw-induced Thermal Hyperalgesia. The settings on record: read-out: % Recovery; for inhibition in vivo at 30 mg/kg: 30 mg/kg po. Type of experiment: in vivo, mice or rats. For orientation: The carrageenan paw model is a standard test of acute inflammation.
Experiment [3] concerns the target T1, human VR1 (Homo sapiens, UniProt Q8NER1).
T1 construct: expressed in transfected cells; host or cells: HEK293
Put plainly: Human VR1 [3H] RTX binding assay. The settings on record: 3H-RTX binding; for Ki: hVR1, read-out: 3H-RTX binding assay Ki hVR1; for inhibition at 1 µM: compound at 1 μM. In a few lines:
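Membranes from HEK293 cells transfected with human VR1, about 120 μg protein/ml, incubated with [3H] RTX in HEPES buffer pH 7.4 with 0.25 mg/mL fatty acid-free BSA for 60 min at 37° C. Bound radioactivity measured by scintillation counting. Non-specific binding defined with 200 nM unlabeled RTX.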

Experiment [4] has as its target T1, human VR1. Put plainly: Human VR1 functional assay (intracellular Ca++, FLIPR, capsaicin challenge). Type of experiment: cell-based. How it is done: The functional activity of the test compounds was determined by measuring changes in intracellular calcium concentration using a Ca^++-sensitive fluorescent dye and FLIPR™ technology.
EC50 or IC50 values were determined from dose-response studies.

Experiment [5] relates to rings of bronchial tissue obtained from male guinea pigs. Put plainly: Guinea Pig Bronchial Ring Constriction. The settings on record: tissues exposed to compound for 30 min; capsaicin 10 nM-10 μM; FIG. 7. How it is done: Two mm rings of bronchial tissue obtained from male guinea pigs were suspended in normal Krebs solution between two wire hooks under an initial loading tension of 1 gram. The saline was maintained in a 5% CO2 and 95% O2 atmosphere at 37° C. in the presence of indomethacin (5 μM). A sub-maximal dose of 5-methylfurmethide (5 Mef, 1 μM) was added to each tissue to determine responsiveness using an isometric force transducer. After washout, tissues were exposed to compounds or vehicle for 30 min and treated with thiorphan (10 μM, 5% Na2CO3). A concentration-response curve was then constructed using capsaicin (10 nM-10 μM) increasing in 0.5 log unit increments. The dose response curve was calculated as % max of the 5-Mef response and estimated pA2 were determined.

A further experiment has as its system mice. Briefly: Hot-plate test, reference compounds. Type of experiment: in vivo. The note with it: i.p., pre-treat time 30 min. The source says:
The hot-plate test originally described by Eddy and Leimbach (J. Pharmacol. Exp. Ther. 107:385-393, 1953) with minor modifications (e.g., O'Callaghan and Holtzman, J. Pharmacol. Exp. Ther. 192: 497-505, 1975) is used to ascertain the analgesic potential of compounds.
Generally, male, Swiss-derived albino mice (CRS-CD1®; Charles River Laboratories), weighing 18-24 g at the time of testing or male Sprague Dawley rats (CD1, Charles River Laboratories) 100-300 g are used. The animals are weighed, placed in a plastic box with wood chips (typically 10 mice or 4-6 rats per box) and allowed to acclimate before testing. […]
An animal is placed on the heated surface and the time interval between placement and a shaking, licking or tucking of the hindpaw is recorded as the control reaction time (RTC). […] A percent maximum possible effect (% MPE) can also be calculated from the following formula: % MPE=100×(RTdc−RTc)/(CO−RTc), where RTdc and RTc are drug-treated and control reaction times, respectively, and CO is cut-off time.
As a screen, the largest possible nontoxic dose of test drug is administered. If activity is detected, and if appropriate, generally 3-5 doses (usually 10 mice or 6-8 rats per dose) are used to construct a dose response curve or time course. […] The ED50 value is determined at the time of peak effect.
In general terms: Thermal pain tests record how soon the animal reacts.

Where [6] appears, read: FLIPR functional assay IC50 hVR1 60 min, 60 min.
[7] abbreviates: hVR1, capsaicin challenge, read-out: FLIPR functional assay IC50 hVR1.

SMILES strings stand for the structures. Where two headings read alike, the source gives them in different places.

T1 sequence (Q8NER1 whole entry): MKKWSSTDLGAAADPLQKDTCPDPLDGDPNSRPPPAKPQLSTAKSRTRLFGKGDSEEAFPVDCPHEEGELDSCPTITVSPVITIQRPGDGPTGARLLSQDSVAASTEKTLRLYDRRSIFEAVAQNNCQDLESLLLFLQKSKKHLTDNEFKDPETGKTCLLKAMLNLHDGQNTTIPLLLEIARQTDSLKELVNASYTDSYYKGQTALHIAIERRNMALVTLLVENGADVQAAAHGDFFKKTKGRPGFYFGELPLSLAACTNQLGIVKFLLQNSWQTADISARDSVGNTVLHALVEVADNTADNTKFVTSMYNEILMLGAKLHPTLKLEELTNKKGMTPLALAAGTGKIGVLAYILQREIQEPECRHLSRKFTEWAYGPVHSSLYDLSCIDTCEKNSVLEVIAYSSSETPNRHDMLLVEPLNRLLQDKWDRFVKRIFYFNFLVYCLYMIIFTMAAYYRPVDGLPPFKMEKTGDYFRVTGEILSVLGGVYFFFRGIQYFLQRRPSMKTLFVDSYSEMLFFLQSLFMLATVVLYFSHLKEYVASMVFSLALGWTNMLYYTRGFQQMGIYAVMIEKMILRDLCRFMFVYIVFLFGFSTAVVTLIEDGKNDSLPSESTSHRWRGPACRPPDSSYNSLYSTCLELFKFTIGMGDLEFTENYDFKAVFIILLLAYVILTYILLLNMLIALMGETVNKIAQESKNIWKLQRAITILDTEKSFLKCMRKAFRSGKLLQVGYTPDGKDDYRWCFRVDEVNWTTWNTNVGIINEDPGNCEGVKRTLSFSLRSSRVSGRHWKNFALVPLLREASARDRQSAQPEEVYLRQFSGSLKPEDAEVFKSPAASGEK

In the case of `CN(c1ccc(C(=O)Nc2cnc3ccccc3c2)cc1)C1CCCCC1` [Example 102, 4-(Cyclohexyl-methyl-amino)-N-quinolin-3-yl-benzamide], in experiment [1] (FIG. 1), the “inhibition of colon weight loss” value is “significant (p<0.05) inhibition”. In experiment [1] (FIG. 2), the “inhibition of colon shrinkage” value was “significant (p<0.05) inhibition”. For the same molecule, the “Colon Damage Score” value in experiment [1] (FIG. 3) was “diminished (p>0.05), but not statistically significantly”. Moreover, the “Stool Score” value in experiment [1] (FIG. 4) is on record as “decreased (p>0.05), but not statistically significantly”. Moreover, in experiment [1] (FIG. 5), the “inhibition of Total Score” value was “significant (p<0.05) inhibition”. For the same molecule, the “Myleoperoxidase (MPO) inhibition” value in experiment [1] (colon tissue, FIG. 6) is “inhibition (p>0.05)”. The inhibition in vivo at 30 mg/kg in experiment [2] was determined as 55%.
Usually Ki stands for the dissociation constant of the complex between target and ligand, obtained from inhibition or displacement. One may read the IC50 as the point on the concentration scale where inhibition reaches its midpoint. `CN(CC1CCCCC1)c1ccc(CCC(=O)Nc2cnc3ccccc3c2)cc1` [Example 35, 3-[4-(Cyclohexylmethyl-methyl-amino)-phenyl]-N-quinolin-3-yl-propionamide]: the Ki at human VR1 [3] amounted to 81.5 nM. For the same molecule, the IC50 was determined as 390 nM at human VR1 [4] (setting [6]) and 260 nM on human VR1 [4] (setting [7]). Also, the inhibition in vivo at 20 mg/kg in experiment [2] (20 mg/kg po) turned out to be 87%.
Regarding `O=C(Nc1cnc2ccccc2c1)c1ccc(N2CC3CCCC(C3)C2)cc1` [Example 178, 4-(3-Aza-bicyclo[3.3.1]non-3-yl)-N-quinolin-3-yl-benzamide], in experiment [5], the “shift of the capsaicin dose-response curve” value is “shifted the capsaicin dose-response curve to the right”.
For the molecule `Cc1cc(CC(=O)O)n(C)c1C(=O)c1ccc(Cl)cc1` [Zomepirac], in the experiment on mice, the “ED50 (95% C.I.)” value was “inactive”.
`CCC(C)(C)c1ccc(CCC(=O)Nc2cnc3ccccc3c2)cc1` [Example 14, 3-[4-(1,1-Dimethyl-propyl)-phenyl]-N-quinolin-3-yl-propionamide]: the Ki on human VR1 [3] was determined as 5.24 nM. The IC50 turned out to be 30 nM at human VR1 [4] (setting [6]) and 36.7 nM at human VR1 [4] (setting [7]). For the same molecule, in experiment [2], the inhibition in vivo at 30 mg/kg was 47%.
In general, inhibition refers to the drop in the measured response relative to a control, in per cent. In the case of `O=C(Nc1cnc2ccccc2c1)c1ccc(N2CCC(Cc3ccccc3)CC2)cc1` [Example 180, 4-(4-Benzyl-piperidin-1-yl)-N-quinolin-3-yl-benzamide], on human VR1 [3], the inhibition at 1 µM was 99% and the Ki was 17.6 nM. The molecule further gave an IC50 against human VR1 [4] (setting [6]) of 357 nM. Besides, in experiment [2] (10 mg/kg po), the inhibition in vivo at 10 mg/kg was 64%.
With `CCCCCN(C)c1ccc(CCC(=O)Nc2cnc3ccccc3c2)cc1` [Example 37, 3-[4-(Methyl-pentyl-amino)-phenyl]-N-quinolin-3-yl-propionamide], the Ki at human VR1 [3] turned out to be 178 nM. The figures for the IC50 on human VR1 [4] (setting [6]) and on human VR1 [4] (setting [7]) were 190 nM and 1100 nM, respectively. The inhibition in vivo at 30 mg/kg in experiment [2] was found to be 58%.
As to `CN(CCc1ccccc1)c1ccc(C(=O)Nc2cnc3ccccc3c2)cc1` [Example 89, 4-(Methyl-phenethyl-amino)-N-quinolin-3-yl-benzamide], at human VR1 [3], the inhibition at 1 µM is 102% and the Ki came out at 27.3 nM. Besides, the IC50 against human VR1 [4] (setting [6]) came out at 72 nM. In addition, at human VR1 [4] (setting [7]), the IC50 was determined as 1900 nM. In experiment [2] (10 mg/kg po), the inhibition in vivo at 10 mg/kg was 42%.
For `CCCCCN1CCc2cc(C(=O)Nc3cnc4ccccc4c3)ccc21` [Example 227, 1-Pentyl-2,3-dihydro-1H-indole-5-carboxylic acid quinolin-3-ylamide], the inhibition at 1 µM on human VR1 [3] was 98%. Moreover, the Ki on human VR1 [3] was found to be 24.1 nM. The IC50 is 106 nM at human VR1 [4] (setting [6]) and 84 nM on human VR1 [4] (setting [7]). The inhibition in vivo at 10 mg/kg in experiment [2] (10 mg/kg po) came to 52%.
In the case of `CCCCCN(C)c1ccc(C(=O)Nc2cnc3ccccc3c2)cc1` [Example 154, 4-(Methyl-pentyl-amino)-N-quinolin-3-yl-benzamide], in experiment [2] (10 mg/kg sc), the inhibition in vivo at 10 mg/kg worked out at 83%.
